Read-outs that look alike come from different tables or passages of the source.
Tests used:
rats = experiment: Sodium iodoacetate-induced knee joint osteoarthritic pain model (hind limb grip force); assay type: in vivo; settings: rat, 30 mg/kg single acute oral dose, assessed 1 hour following administration, 20 days after iodoacetate
Protocol: Unilateral knee joint osteoarthritis was induced in the rats by a single intra-articular (i.a.) injection of sodium iodoacetate (3 mg in 0.05 mL sterile isotonic saline) into the right knee joint cavity under light isoflurane anesthesia using a 26G needle. […] Pain behavioral assessment of hind limb grip force was conducted by recording the maximum compressive force exerted on the hind limb strain gauge setup, in a commercially available grip force measurement system (Columbus Instruments, Columbus, Ohio). The grip force data was converted to a maximum hindlimb cumulative compressive force (CFmax) (gram force)/kg body weight for each animal. The analgesic effects of test compounds were determined 20 days following the i.a. injection of sodium iodoacetate. The vehicle control group for each compound being tested was assigned 0% whereas the age matched naïve group was assigned as being 100% (normal). The % effect for each dose group was then expressed as % return to normalcy compared to the naïve group. Test compounds were administered orally in 10% ethanol/20% Tween 80/70% polyethylene glycol-400 vehicle at a volume of 2 mL/kg. The assessment of the analgesic effects of test compounds was made 1 hour following oral administration. […]

[1] = target: human TRPV1 receptor (hTRPV1) (Homo sapiens (Human), UniProt Q8NER1); experiment: Capsaicin activation assay (FLIPR intracellular Ca2+); assay type: cell-based
Summary of the method: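 Recombinant HEK293 cells stably expressing hTRPV1, Calcium-4 dye loaded 90–120 min at room temperature, were preincubated with compound (12-point, one-third-log) for 3 min before capsaicin challenge. Peak FLIPR fluorescence minus baseline was normalised to capsaicin control response; IC50 from four-parameter logistic fit.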

Sequence of human TRPV1 receptor (hTRPV1) (Q8NER1 whole entry): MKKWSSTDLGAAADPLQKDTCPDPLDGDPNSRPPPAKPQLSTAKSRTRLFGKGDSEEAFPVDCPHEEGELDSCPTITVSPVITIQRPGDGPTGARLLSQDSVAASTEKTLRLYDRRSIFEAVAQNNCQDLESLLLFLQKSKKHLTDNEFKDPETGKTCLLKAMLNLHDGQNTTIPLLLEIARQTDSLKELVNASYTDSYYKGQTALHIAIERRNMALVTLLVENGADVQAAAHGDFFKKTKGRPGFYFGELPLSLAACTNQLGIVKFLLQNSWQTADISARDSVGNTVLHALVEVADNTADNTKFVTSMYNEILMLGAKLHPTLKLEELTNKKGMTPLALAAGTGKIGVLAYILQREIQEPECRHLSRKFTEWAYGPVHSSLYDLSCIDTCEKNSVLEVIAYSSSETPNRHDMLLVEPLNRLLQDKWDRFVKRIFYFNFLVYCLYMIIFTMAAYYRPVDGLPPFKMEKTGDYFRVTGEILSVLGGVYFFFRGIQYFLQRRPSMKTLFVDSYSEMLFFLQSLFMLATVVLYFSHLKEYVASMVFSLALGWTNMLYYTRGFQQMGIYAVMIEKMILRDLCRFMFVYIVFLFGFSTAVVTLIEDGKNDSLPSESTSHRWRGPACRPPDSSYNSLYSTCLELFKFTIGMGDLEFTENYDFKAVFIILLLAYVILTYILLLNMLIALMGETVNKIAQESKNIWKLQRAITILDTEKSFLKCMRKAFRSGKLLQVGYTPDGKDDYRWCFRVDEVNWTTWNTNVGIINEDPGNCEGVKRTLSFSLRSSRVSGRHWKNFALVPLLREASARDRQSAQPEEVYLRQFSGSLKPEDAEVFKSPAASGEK

SMILES: CS(=O)(=O)Nc1ccc(CNC(=O)N[C@@H]2CC(CF)(CF)Oc3cc(C(F)(F)F)ccc32)cc1F [Example 10, N-{4-[({[(4R)-2,2-bis(fluoromethyl)-7-(trifluoromethyl)-3,4-dihydro-2H-chromen-4-yl]carbamoyl}amino)methyl]-2-fluorophenyl}methanesulfonamide]
- % effect (% return to normalcy) in iodoacetate-induced osteoarthritic pain model (rats): 62%
- IC50 ([1]; Table 2, capsaicin-induced intracellular Ca2+ increase, read-out: human TRPV1 capsaicin IC50): 54 nM
- IC50 ([1]; inhibition of capsaicin-induced intracellular Ca2+ increase, compounds added 3 minutes prior to capsaicin, read-out: hTRPV1 cap. IC50): 54 nM
